From patent US10246429B2, “Vinyl fluoride cyclopropyl fused thiazin-2-amine compounds as beta-secretase inhibitors and methods of use” (AMGEN INC., priority 2015, dated 2019)

Key:
BACE2 = BACE2 (Homo sapiens (Human), UniProt Q9Y5Z0); test: In vitro enzymatic BACE2 FRET assay; assay type: biochemical; conditions: read-out: IC50 IP (μM) BACE2 Enzyme
From the text: (§1) In Vitro Enzymatic BACE1 and BACE2 FRET (Fluorescence Resonance Energy Transfer) Assays (Enzyme Assay Data in Table 1)

Cathepsin D (CatD) = Cathepsin D (CatD) (Homo sapiens (Human), UniProt P07339); test: CatD assay; assay type: biochemical; conditions: read-out: IC50 IP (μM) CatD
Aβ 40 = test: In vivo inhibition of beta-secretase: Aβ 40 reduction in rat CSF and brain; conditions: after 4 hrs, versus vehicle;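 further: male Sprague Dawley rats dosed orally in 2% HPMC, 1% Tween80 (pH 2.2) vehicle, Aβ40 quantified by sandwich ECL-based ELISA in CSF and brain supernatants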
From the text: Several animal models, including mouse, rat, dog, and monkey, may be used to screen for inhibition of beta-secretase activity in vivo following administration of a test compound sample. […] A separate group of animals receive 2% hydroxypropyl methylcellulose, 1% Tween80 alone, containing no test compound, and serve as a vehicle-control group. At the end of the test period, animals are sacrificed and brain tissues, plasma or cerebrospinal fluid are collected. […] Homogenates are centrifuged at 355,000 g, 4° C. for 30 minutes. CSF or brain supernatants are then analyzed for the presence of Aβ by specific sandwich ELISA assays based on ECL (Electrochemiluminescence) technology. For example, rat Abeta40 is measured using biotinylated-4G8 (Signet) as a capture antibody and Fab40 (an in-house antibody specific to the C-terminal of Abeta40) as a detection antibody. […] Actual vehicles used: Oral: 2% HPMC, 1% Tween80, pH 2.2

BACE1 [1] = molecular target: T1, BACE1 (Homo sapiens (Human), UniProt P56817); test: In vitro enzymatic BACE1 FRET assay; assay type: biochemical; conditions: read-out: IC50 IP (μM) BACE1 Enzyme
Target sequence in this assay (P56817 46-501): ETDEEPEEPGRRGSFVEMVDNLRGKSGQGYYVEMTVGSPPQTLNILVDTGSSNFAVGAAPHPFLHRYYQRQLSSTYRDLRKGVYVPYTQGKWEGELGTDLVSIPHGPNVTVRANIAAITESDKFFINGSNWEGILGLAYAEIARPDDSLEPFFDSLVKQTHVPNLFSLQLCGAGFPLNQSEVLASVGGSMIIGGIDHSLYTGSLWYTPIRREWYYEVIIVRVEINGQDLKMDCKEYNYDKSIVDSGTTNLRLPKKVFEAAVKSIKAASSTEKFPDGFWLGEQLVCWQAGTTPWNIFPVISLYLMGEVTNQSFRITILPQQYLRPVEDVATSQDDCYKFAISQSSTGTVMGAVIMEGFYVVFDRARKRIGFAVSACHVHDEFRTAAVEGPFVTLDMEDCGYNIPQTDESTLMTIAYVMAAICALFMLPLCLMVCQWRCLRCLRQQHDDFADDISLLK
From the text: as §1

BACE1 [2] = molecular target: T1, BACE1; test: BACE1 cell assay; assay type: cell-based
Target sequence in this assay (P56817 46-501, species assumed): as the sequence (P56817 46-501) above

[3] = read-out: IC50 IP (μM) BACE1 Cell

Cathepsin D (CatD), sequence (P07339 65-412, species assumed): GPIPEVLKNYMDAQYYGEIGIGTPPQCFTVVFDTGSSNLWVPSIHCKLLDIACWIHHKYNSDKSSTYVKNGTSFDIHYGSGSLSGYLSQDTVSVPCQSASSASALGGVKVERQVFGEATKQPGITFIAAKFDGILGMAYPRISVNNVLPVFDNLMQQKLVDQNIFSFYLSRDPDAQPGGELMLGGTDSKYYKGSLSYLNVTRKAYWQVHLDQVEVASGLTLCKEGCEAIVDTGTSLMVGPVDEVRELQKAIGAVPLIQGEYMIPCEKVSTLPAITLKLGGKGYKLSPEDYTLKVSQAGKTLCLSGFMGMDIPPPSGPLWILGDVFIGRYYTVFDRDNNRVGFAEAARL
BACE2, sequence (Q9Y5Z0 63-518): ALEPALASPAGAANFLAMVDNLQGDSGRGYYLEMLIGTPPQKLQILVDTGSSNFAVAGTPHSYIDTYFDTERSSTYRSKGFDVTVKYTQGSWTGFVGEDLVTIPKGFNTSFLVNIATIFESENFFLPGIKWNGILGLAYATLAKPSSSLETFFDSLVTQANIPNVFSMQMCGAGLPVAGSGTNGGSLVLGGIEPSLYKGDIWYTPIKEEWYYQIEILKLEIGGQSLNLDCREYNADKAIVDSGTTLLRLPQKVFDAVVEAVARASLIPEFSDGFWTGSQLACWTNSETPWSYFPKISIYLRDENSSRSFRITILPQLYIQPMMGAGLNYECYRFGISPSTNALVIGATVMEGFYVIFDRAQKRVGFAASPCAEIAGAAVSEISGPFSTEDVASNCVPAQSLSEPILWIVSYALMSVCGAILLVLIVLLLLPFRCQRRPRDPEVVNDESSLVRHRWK

Row | SMILES | IC50 (BACE2) [µM] | IC50 (Cathepsin D (CatD)) [µM] | % Aβ 40 reduction in rat CSF at 10 mpk (Aβ 40) [%] | % Aβ 40 reduction in rat brain at 10 mpk (Aβ 40) [%] | IC50 (BACE1 [1]) [µM] | IC50 (BACE1 [2]) [µM] | IC50 (BACE1 [2]; [3]) [µM]
1 | C[C@]1(c2cc(/C=C(\F)c3ccc(C#N)cn3)ccc2F)N=C(N)S[C@@]2(C(=O)N3CC[C@@H](F)C3)C[C@H]21 [Example 126, 6-((Z)-2-(3-((1S,5S,6S)-3-amino-1-((R)-3-fluoropyrrolidine-1-carbonyl)-5-methyl-2-thia-4-azabicyclo[4.1.0]hept-3-en-5-yl)-4-fluorophenyl)-1-fluorovinyl)nicotinonitrile] | 0.0299 | 390 | 73 | 73 | – | – | –
2 | C[C@]1(c2cc(/C=C(\F)c3ccc(C#N)cn3)ccc2F)N=C(N)S[C@@]2(C(=O)N3CC[C@H](F)C3)C[C@H]21 [Example 127, 6-((Z)-2-(3-((1S,5S,6S)-3-amino-1-((S)-3-fluoropyrrolidine-1-carbonyl)-5-methyl-2-thia-4-azabicyclo[4.1.0]hept-3-en-5-yl)-4-fluorophenyl)-1-fluorovinyl)nicotinonitrile] | 0.0519 | 131 | 73 | 76 | – | – | –
3 | C#CCOc1cnc(/C(F)=C/c2cnc(F)c([C@@]3(C)N=C(N)S[C@@]4(C(=O)N5CCOCC5)C[C@H]43)c2)cn1 [Example 301, ((1S,5S,6S)-3-amino-5-(2-fluoro-5-((Z)-2-fluoro-2-(5-(prop-2-yn-1-yloxy)pyrazin-2-yl)vinyl)pyridin-3-yl)-5-methyl-2-thia-4-azabicyclo[4.1.0]hept-3-en-1-yl)(morpholino)methanone] | 0.309 | 177 | 48 | 41 | 0.0018 | 0.0045 | –
4 | CNC(=O)[C@]12C[C@H]1[C@@](C)(c1cc(/C=C(\F)c3cnc(C#N)cn3)ccc1F)N=C(N)S2 [Example 223, (1S,5S,6S)-3-amino-5-(5-((Z)-2-(5-cyanopyrazin-2-yl)-2-fluorovinyl)-2-fluorophenyl)-N,5-dimethyl-2-thia-4-azabicyclo[4.1.0]hept-3-ene-1-carboxamide] | 0.08 | 234 | 64 | 48 | 0.0018 | 0.0022 | –
5 | C#CCOc1cnc(/C(F)=C/c2ccc(F)c([C@@]3(C)N=C(N)S[C@@]4(C(=O)NCC(F)F)C[C@H]43)c2)cn1 [Example 302, (1S,5S,6S)-3-amino-N-(2,2-difluoroethyl)-5-(2-fluoro-5-((Z)-2-fluoro-2-(5-(prop-2-yn-1-yloxy)pyrazin-2-yl)vinyl)phenyl)-5-methyl-2-thia-4-azabicyclo[4.1.0]hept-3-ene-1-carboxamide] | 0.109 | 8.5 | 62 | 55 | 0.0019 | 0.0047 | –
6 | CC#CCOc1cnc(/C(F)=C/c2ccc(F)c([C@@]3(C)N=C(N)S[C@@]4(C(N)=O)C[C@H]43)c2)cn1 [Example 241, (1S,5S,6S)-3-amino-5-(5-((Z)-2-(5-(but-2-yn-1-yloxy)pyrazin-2-yl)-2-fluorovinyl)-2-fluorophenyl)-5-methyl-2-thia-4-azabicyclo[4.1.0]hept-3-ene-1-carboxamide] | 0.115 | 165 | 45 | 47 | 0.0004 | – | 0.0039
7 | C[C@]1(c2cc(/C=C(\F)c3ccc(C#N)cn3)ccc2F)N=C(N)S[C@@]2(C(=O)N3CCO[C@@H]4C[C@@H]43)C[C@H]21 [Example 312, 6-((Z)-2-(3-((1S,5S,6S)-3-amino-1-((1R,6S)-2-oxa-5-azabicyclo[4.1.0]heptane-5-carbonyl)-5-methyl-2-thia-4-azabicyclo[4.1.0]hept-3-en-5-yl)-4-fluorophenyl)-1-fluorovinyl)nicotinonitrile] | – | – | 66 | 56 | – | – | –
8 | C[C@]1(c2cc(/C=C(\F)c3ccc(C#N)cn3)ccc2F)N=C(N)S[C@@]2(C(=O)N3CCC(F)(F)C3)C[C@H]21 [Example 122, 6-((Z)-2-(3-((1S,5S,6S)-3-amino-1-(3,3-difluoropyrrolidine-1-carbonyl)-5-methyl-2-thia-4-azabicyclo[4.1.0]hept-3-en-5-yl)-4-fluorophenyl)-1-fluorovinyl)nicotinonitrile] | – | – | 67 | 44 | – | – | –
9 | CN(C)C(=O)[C@]12C[C@H]1[C@@](C)(c1cc(/C=C(\F)c3ccc(Cl)cn3)ccc1F)N=C(N)S2 [Example 102, (1S,5S,6S)-3-amino-5-(5-((Z)-2-(5-chloropyridin-2-yl)-2-fluorovinyl)-2-fluorophenyl)-N,N,5-trimethyl-2-thia-4-azabicyclo[4.1.0]hept-3-ene-1-carboxamide] | 0.002 | 329 | 55 | 20 | – | – | –
10 | C#CCOc1cnc(/C(F)=C/c2ccc(F)c([C@@]3(C)N=C(N)S[C@@]4(C(=O)N5CCOCC5)C[C@H]43)c2)cn1 [Example 292, ((1S,5S,6S)-3-amino-5-(2-fluoro-5-((Z)-2-fluoro-2-(5-(prop-2-yn-1-yloxy)pyrazin-2-yl)vinyl)phenyl)-5-methyl-2-thia-4-azabicyclo[4.1.0]hept-3-en-1-yl)(morpholino)methanone] | – | – | 70 | 75 | – | – | 0.0007
11 | CN(C)C(=O)[C@]12C[C@H]1[C@@](C)(c1cc(/C=C(\F)c3ccc(C#N)cn3)ccc1F)N=C(N)S2 [Example 106, (1S,5S,6S)-3-amino-5-(5-((Z)-2-(5-cyanopyridin-2-yl)-2-fluorovinyl)-2-fluorophenyl)-N,N,5-trimethyl-2-thia-4-azabicyclo[4.1.0]hept-3-ene-1-carboxamide] | 0.0143 | 148 | 78 | 71 | – | – | –
12 | C#CCOc1cnc(/C(F)=C/c2ccc(F)c([C@@]3(C)N=C(N)S[C@@]4(C(=O)NC)C[C@H]43)c2)cn1 [Example 151, (1S,5S,6S)-3-amino-5-(2-fluoro-5-((Z)-2-fluoro-2-(5-(prop-2-yn-1-yloxy)pyrazin-2-yl)vinyl)phenyl)-N,5-dimethyl-2-thia-4-azabicyclo[4.1.0]hept-3-ene-1-carboxamide] | 0.396 | 135 | 64 | 45 | – | – | –
13 | CNC(=O)[C@]12C[C@H]1[C@@](C)(c1cc(/C=C(\F)c3ccc(C#CC4(C)COC4)cn3)ccc1F)N=C(N)S2 [Example 360, (1S,5S,6S)-3-amino-5-(2-fluoro-5-((Z)-2-fluoro-2-(5-((3-methyloxetan-3-yl)ethynyl)pyridin-2-yl)vinyl)phenyl)-N,5-dimethyl-2-thia-4-azabicyclo[4.1.0]hept-3-ene-1-carboxamide] | 0.756 | 72.5 | – | – | 0.15 | – | 0.636
14 | C#Cc1ccc(/C(F)=C/c2ccc(F)c([C@@]3(C)N=C(N)S[C@@]4(C(=O)N(C)C)C[C@H]43)c2)nc1 [Example 110, (1S,5S,6S)-3-amino-5-(5-((Z)-2-(5-ethynylpyridin-2-yl)-2-fluorovinyl)-2-fluorophenyl)-N,N,5-trimethyl-2-thia-4-azabicyclo[4.1.0]hept-3-ene-1-carboxamide] | 0.0144 | 403 | – | – | 0.00324 | – | 0.0127
15 | CNC(=O)[C@]12C[C@H]1[C@@](C)(c1cc(/C=C(\F)c3ccc(Br)cn3)ccc1F)N=C(N)S2 [Example 355, (1S,5S,6S)-3-amino-5-(5-((Z)-2-(5-bromopyridin-2-yl)-2-fluorovinyl)-2-fluorophenyl)-N,5-dimethyl-2-thia-4-azabicyclo[4.1.0]hept-3-ene-1-carboxamide] | 0.069 | 141 | – | – | 0.01 | – | 0.023
16 | C[C@@H]1CN(C(=O)[C@]23C[C@H]2[C@@](C)(c2cc(/C=C(\F)c4ccc(C#N)cn4)ccc2F)N=C(N)S3)[C@H](C)CO1 [Example 330, 6-((Z)-2-(3-((1S,5S,6S)-3-amino-1-((2R,5R)-2,5-dimethylmorpholine-4-carbonyl)-5-methyl-2-thia-4-azabicyclo[4.1.0]hept-3-en-5-yl)-4-fluorophenyl)-1-fluorovinyl)nicotinonitrile] | 0.239 | 138 | – | – | 0.0086 | – | 0.0177
17 | C#CCOc1cnc(/C(F)=C/c2ccc(F)c([C@@]3(C)N=C(N)S[C@]4(CO)[C@H]3C4(F)F)c2)cn1 [Example 253, ((1S,5S,6R)-3-amino-7,7-difluoro-5-(2-fluoro-5-((Z)-2-fluoro-2-(5-(prop-2-yn-1-yloxy)pyrazin-2-yl)vinyl)phenyl)-5-methyl-2-thia-4-azabicyclo[4.1.0]hept-3-en-1-yl)methanol] | 0.385 | 147 | – | – | 0.0054 | – | 0.0636
18 | COC[C@]12C[C@H]1[C@@](C)(c1cc(/C=C(\F)c3cnc(OCC4CC4)cn3)ccc1F)N=C(N)S2 [Example 270] | 1.22 | 211 | – | – | 0.659 | – | 5.12
19 | C[C@]1(c2cc(/C=C(\F)c3ccc(C#N)cn3)ccc2F)N=C(N)S[C@@]2(C(=O)N3CCNC(=O)CC3)C[C@H]21 [Example 142, 6-((Z)-2-(3-((1S,5S,6S)-3-amino-5-methyl-1-(5-oxo-1,4-diazepane-1-carbonyl)-2-thia-4-azabicyclo[4.1.0]hept-3-en-5-yl)-4-fluorophenyl)-1-fluorovinyl)nicotinonitrile] | 0.0173 | 400 | – | – | 0.00178 | – | 0.00219
